In experiment [1] the test system is HDAC (HeLa nuclear extract). Kind of experiment: HDAC fluorimetric assay kit (AK-500, Biomol), HeLa nuclear extract. The format is biochemical. Conditions: TABLE 1-B, Section 1 compounds; read-out: HDAC (IC50 grading). On the procedure: (§1) HDAC inhibitors were screened using an HDAC fluorimetric assay kit (AK-500, Biomol, Plymouth Meeting, Pa.). […] Each assay was setup as follows: Defrosted all kit components and kept on ice until use. […] Prepared dilutions of Trichostatin A (TSA, positive control) and tested compounds in assay buffer (5× of final concentration). Diluted Fluor de Lys™ Substrate in assay buffer to 100 uM (50 fold=2× final). Diluted Fluor de Lys™ developer concentrate 20-fold (e.g. 50 μl plus 950 μl Assay Buffer) in cold assay buffer. Second, diluted the 0.2 mM Trichostatin A 100-fold in the 1× Developer (e.g. 10 μl in 1 ml; final Trichostatin A concentration in the 1× Developer=2 μM; final concentration after addition to HDAC/Substrate reaction=1 μM). Added Assay buffer, diluted trichostatin A or test inhibitor to appropriate wells of the microtiter plate. Added diluted HeLa extract or other HDAC sample to all wells except for negative controls.
HDAC inhibitors were screened using an HDAC fluorimetric assay kit (AK-500, Biomol, Plymouth Meeting, Pa.).
Each assay was setup as follows: Defrosted all kit components and kept on ice until use. […] Prepared dilutions of Trichostatin A (TSA, positive control) and tested compounds in assay buffer (5× of final concentration). Diluted Fluor de Lys™ Substrate in assay buffer to 100 uM (50 fold=2× final). Diluted Fluor de Lys™ developer concentrate 20-fold (e.g. 50 μl plus 950 μl Assay Buffer) in cold assay buffer. Second, diluted the 0.2 mM Trichostatin A 100-fold in the 1× Developer (e.g. 10 μl in 1 ml; final Trichostatin A concentration in the 1× Developer=2 μM; final concentration after addition to HDAC/Substrate reaction=1 μM). Added Assay buffer, diluted trichostatin A or test inhibitor to appropriate wells of the microtiter plate. Added diluted HeLa extract or other HDAC sample to all wells except for negative controls.
HDAC inhibitors is screened using an HDAC fluorimetric assay kit (AK-500, Biomol, Plymouth Meeting, Pa.).
Each assay is setup as follows: Defrost all kit components and kept on ice until use. […] Prepare dilutions of Trichostatin A (TSA, positive control) and tested compounds in assay buffer (5× of final concentration). Dilute Fluor de Lys™ Substrate in assay buffer to 100 uM (50 fold=2× final). Dilute Fluor de Lys™ developer concentrate 20-fold (e.g. 50 μl plus 950 μl Assay Buffer) in cold assay buffer. Second, dilute the 0.2 mM Trichostatin A 100-fold in the 1× Developer (e.g. 10 μl in 1 ml; final Trichostatin A concentration in the 1× Developer=2 μM; final concentration after addition to HDAC/Substrate reaction=1 μM). Add Assay buffer, dilute trichostatin A or test inhibitor to appropriate wells of the microtiter plate. Add diluted HeLa extract or other HDAC sample to all wells except for negative controls.
as §1, with “assay buffer)” for “Assay Buffer)”, “assay” for “Assay”
CDK2/cyclinE: 0.5 nM CDK2/cyclinE and 5 μM Histon H1 are in the reaction buffer plus 1 μM ATP and 1% DMSO final. Incubate for 2 hours at room temperature. […] Incubate for 2 hours at room temperature.

In another experiment the target is C-Raf (Homo sapiens, UniProt P04049, Y340D/Y341D). Kind of experiment: Raf kinase assay (Upstate kit, MEK-1 substrate, dot blot), C-Raf. The format is biochemical. Conditions: TABLE 6-B (Section 6 compounds). How it is done: The Raf kinase assay was performed by following the protocol of Raf kinase assay kit (B-Raf, Upstate, catalog#17-359; C-Raf, Upstate, catalog#17-360) with modifications. Briefly, assay buffer, ATP, substrate and Raf kinase were mixed in a 96 well assay plate. The final kinase assay mixture contained 20 mM MOPS, pH7.2, 25 mM β-glycerol phosphate, 5 mM EGTA, 1 mM sodium orthovanadate, 1 mM DTT, 250 μM ATP and 37.5 mM magnesium chloride, 0.1 μg/well of Raf kinase, and 1 μg/well of MEK-1 substrate protein. Assay samples were incubated for 30 min at room temperature. The kinase reaction was stopped by adding EDTA, pH8 to a final concentration of 25 mM. A 10 μl of the reaction sample was spotted onto nitrocellulose filter and dot blot was performed by adding 1 μg/ml of anti-phospho-MEK-1 antibody in the blocking solution (Licor Bioscience, catalogue #927-40000). The nitrocellulose filter was subsequently incubated with secondary IRDye 800CW goat anti-rabbit antibody (Licor Bioscience, catalogue #926-32211) before reading the signal on an Odyssey imager (Licor Bioscience).

Another experiment relates to Lung_HCC827. Kind of experiment: Cell proliferation assay (ATPlite), HCC827. The format is cell-based. Conditions: Homo sapiens, TABLE C, 72 hours, 0.5% fetal bovine serum, ATP content, read-out: IC50 grading, Lung_HCC827. How it is done:
(§2) A representative number of compounds were assayed against several different cell lines using the cell proliferation assay:
(§3) Cell Proliferation Assay:
(§4) Cancer cell lines were plated at 5,000 to 10,000 per well in 96-well flatted bottomed plates with various concentration of compounds. The cells were incubated with compounds for 72 hours in the presence of 0.5% of fetal bovine serum. Growth inhibition was accessed by adenosine triphosphate (ATP) content assay using Perkin Elmer ATPlite kit. ATPlite is an ATP monitoring system based on firefly luciferase. Briefly, 25 μl of mammalian cell lysis solution was added to 50 μl of phenol red-free culture medium per well to lyse the cells and stabilize the ATP. 25 μl of substrate solution was then added to the well and subsequently the luminescence was measured.
In general terms: Cellular ATP, detected with luciferase, serves as a proxy for viable cell number.

For the next experiment, the system named is Lung_H460. Kind of experiment: Cell proliferation assay (ATPlite), H460. Conditions: Homo sapiens, NCI-H460; TABLE C; 72 hours, 0.5% fetal bovine serum, ATP content; read-out: IC50 grading, Lung_H460. The format is cell-based. How it is done:
as §2, §3, §4

The subject of a further experiment is Lung_H1703. Kind of experiment: Cell proliferation assay (ATPlite), H1703. In kind it is cell-based. Conditions: Homo sapiens, NCI-H1703; TABLE C; 72 hours, 0.5% fetal bovine serum, ATP content; read-out: IC50 grading, Lung_H1703. How it is done:
as §2, §3, §4

The next experiment deals with Pancreas_Capan1. Kind of experiment: Cell proliferation assay (ATPlite), Capan1. The format is cell-based. Conditions: Homo sapiens, CAPAN-1; TABLE C; 72 hours, 0.5% fetal bovine serum, ATP content; read-out: IC50 grading, Pancreas_Capan1. How it is done:
as §2, §3, §4

The test system of another experiment is Lung_H2122. As to the kind of experiment: Cell proliferation assay (ATPlite), H2122. The format is cell-based. Conditions: Homo sapiens, NCI-H2122; TABLE C; 72 hours, 0.5% fetal bovine serum, ATP content; read-out: IC50 grading, Lung_H2122. On the procedure:
as §2, §3, §4

The next experiment concerns Lung_H358. Kind of experiment: Cell proliferation assay (ATPlite), H358. Conditions: Homo sapiens, NCI-H358; TABLE C; 72 hours, 0.5% fetal bovine serum, ATP content; read-out: IC50 grading, Lung_H358. In kind it is cell-based. How it is done:
as §2, §3, §4

A further experiment relates to Pancreas_BxPC3. As to the kind of experiment: Cell proliferation assay (ATPlite), BxPC3. In kind it is cell-based. Conditions: Homo sapiens, BXPC-3; TABLE C; 72 hours, 0.5% fetal bovine serum, ATP content; read-out: IC50 grading, Pancreas_BxPC3. On the procedure: as §2, §3, §4
The next experiment deals with Lung_H1975. As to the kind of experiment: Cell proliferation assay (ATPlite), H1975. The format is cell-based. Conditions: Homo sapiens, NCI-H1975; TABLE C; 72 hours, 0.5% fetal bovine serum, ATP content; read-out: IC50 grading, Lung_H1975. On the procedure: as §2, §3, §4
Another experiment concerns Pancreas_PANC1. As to the kind of experiment: Cell proliferation assay (ATPlite), PANC1. In kind it is cell-based. Conditions: Homo sapiens, PANC-1; TABLE C; 72 hours, 0.5% fetal bovine serum, ATP content; read-out: IC50 grading, Pancreas_PANC1. How it is done:
as §2, §3, §4

For experiment [2], the system named is Colon_HCT116 (HCT116, colon cancer). As to the kind of experiment: Cell proliferation assay (ATPlite), HCT116. The format is cell-based. Conditions: Homo sapiens, HCT-116; TABLE C; 72 hours, 0.5% fetal bovine serum, ATP content; read-out: IC50 grading, Colon_HCT116. On the procedure: as §2, §3
(§5) Cancer cell lines were plated at 5,000 to 10,000 per well in 96-well flatted bottomed plates with various concentration of compounds. […] Growth inhibition was accessed by adenosine triphosphate (ATP) content assay using Perkin Elmer ATPlite kit. ATPlite is an ATP monitoring system based on firefly luciferase. Briefly, 25 μl of mammalian cell lysis solution was added to 50 μl of phenol red-free culture medium per well to lyse the cells and stabilize the ATP. 25 μl of substrate solution was then added to the well and subsequently the luminescence was measured.

The next experiment relates to Pancreas_HPAC. As to the kind of experiment: Cell proliferation assay (ATPlite), HPAC. Conditions: Homo sapiens, TABLE C, 72 hours, 0.5% fetal bovine serum, ATP content, read-out: IC50 grading, Pancreas_HPAC. In kind it is cell-based. How it is done:
as §2, §3, §4

A further experiment deals with Pancreas_CFPAC. Kind of experiment: Cell proliferation assay (ATPlite), CFPAC. In kind it is cell-based. Conditions: TABLE C; 72 hours, 0.5% fetal bovine serum, ATP content; read-out: IC50 grading, Pancreas_CFPAC. How it is done:
as §2, §3, §4

Another experiment has as its system Pancreas_MiaPaCa2. As to the kind of experiment: Cell proliferation assay (ATPlite), MiaPaCa2. The format is cell-based. Conditions: Homo sapiens, MIA PaCa-2; TABLE C; 72 hours, 0.5% fetal bovine serum, ATP content; read-out: IC50 grading, Pancreas_MiaPaCa2. How it is done:
as §2, §3, §4

Experiment [3] relates to Prostate_PC3 (PC-3, prostate adenocarcinoma). Kind of experiment: Cell proliferation assay (ATPlite), PC3. The format is cell-based. Conditions: TABLE C; 72 hours, 0.5% fetal bovine serum, ATP content; read-out: IC50 grading, Prostate_PC3. On the procedure: as §2, §3, §5
Experiment [4] concerns ER mRNA expression in human ER-negative breast cancer cell lines. Conditions: Yang et al. Cancer Res., 2001; cited from earlier work.

As a reminder, the IC50 is the concentration needed to halve the response being measured.

Chain of C-Raf (P04049 whole entry Y340D/Y341D): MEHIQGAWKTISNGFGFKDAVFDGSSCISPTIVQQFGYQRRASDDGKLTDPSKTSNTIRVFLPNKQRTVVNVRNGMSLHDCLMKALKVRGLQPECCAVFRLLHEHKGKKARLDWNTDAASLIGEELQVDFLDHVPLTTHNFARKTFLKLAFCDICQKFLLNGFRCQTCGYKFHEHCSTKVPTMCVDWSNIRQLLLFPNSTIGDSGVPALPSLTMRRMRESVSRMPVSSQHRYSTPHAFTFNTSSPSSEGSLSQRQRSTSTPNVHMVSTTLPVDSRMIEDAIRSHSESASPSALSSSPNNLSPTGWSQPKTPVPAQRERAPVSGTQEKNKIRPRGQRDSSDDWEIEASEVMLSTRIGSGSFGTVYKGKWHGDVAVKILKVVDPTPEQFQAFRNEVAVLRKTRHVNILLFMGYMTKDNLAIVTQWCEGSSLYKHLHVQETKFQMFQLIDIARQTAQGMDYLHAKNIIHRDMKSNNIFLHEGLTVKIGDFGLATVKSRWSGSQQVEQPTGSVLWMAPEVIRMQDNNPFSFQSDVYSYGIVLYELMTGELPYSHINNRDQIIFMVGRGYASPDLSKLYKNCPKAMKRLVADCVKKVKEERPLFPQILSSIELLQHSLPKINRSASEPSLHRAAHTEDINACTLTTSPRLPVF

In the case of `COc1cc2ncnc(Nc3ccc(F)c(Cl)c3)c2cc1OCCCCOc1ccc(C(=O)NO)cc1` [Compound 203], in experiment [1], the IC50 was in the range of 0.1 to 1 µM.
At C-Raf, `O=C(CCCCCCC(=O)Nc1cc(Oc2ccc(NC(=O)Nc3ccc(Cl)c(C(F)(F)F)c3)cc2)ccn1)NO` [Compound 12] displayed an IC50 below 0.1 µM.
As for `COc1cc2ncnc(Nc3ccc(F)c(Cl)c3)c2cc1OCCCOc1ccc(C(=O)NO)cc1` [Compound 202], the IC50 in experiment [1] is 0.1 to 1 µM.
As for `COc1cc2ncnc(Nc3ccc(F)c(Cl)c3)c2cc1Oc1ccc(C#CCCC(=O)NO)cc1` [Compound 204], the IC50 in experiment [1] lay within 1 to 10 µM.
On to `C#Cc1cccc(Nc2ncnc3cc(OC)c(NC(=O)CCCCCCC(=O)NO)cc23)c1` [Compound 44], for which the IC50 in the experiment on Lung_HCC827 was in the range of 0.1 to 1 µM; in the experiment on Lung_H460 it was 1 to 10 µM; with Lung_H1703 it was 1 to 10 µM; in the experiment with Pancreas_Capan1, 1 to 10 µM; with Lung_H2122, 1 to 10 µM; in the experiment on Lung_H358, 1 to 10 µM. Moreover, the IC50 with Pancreas_BxPC3 and in the experiment with Lung_H1975 was 1 to 10 µM in each case.
Take `C#Cc1cc(Nc2ncnc3cc(O)c(OCCCCCCC(=O)NO)cc23)ccc1O` [Compound 208]: the IC50 in experiment [1] was below 0.1 µM.
On the same count and under the same terms, to `COc1cc2ncnc(Nc3ccc(F)c(Cl)c3)c2cc1NC(=O)Nc1ccc(C(=O)NO)cc1` [Compound 94] belongs above 10 µM.
`O=C(CCCCCCOc1ccc2ncnc(Nc3ccc(F)c(Cl)c3)c2c1)NO` [Compound 18]: the IC50 in the experiment with Pancreas_PANC1 is 0.1 to 1 µM; in experiment [2] it was 0.1 to 1 µM; with Pancreas_HPAC, 1 to 10 µM; with Pancreas_BxPC3, 0.1 to 1 µM; with Pancreas_CFPAC, 0.1 to 1 µM; in the experiment with Pancreas_MiaPaCa2 it was 0.1 to 1 µM.
Take `C#Cc1cccc(Nc2ncnc3cc(O)c(OCCCCCCC(=O)NO)cc23)c1` [Compound 207]: the IC50 in experiment [1] is below 0.1 µM.
As for `COc1cc2ncnc(Nc3ccc(F)c(Cl)c3)c2cc1OCCCCCCC(=O)NO` [Compound 6], the IC50 in [3] was 0.1 to 1 µM; in the experiment on Lung_H460, 0.1 to 1 µM; with Lung_H1703, 0.1 to 1 µM; in the experiment with Pancreas_Capan1 it was 1 to 10 µM; in the experiment on Lung_H2122, 0.1 to 1 µM; in the experiment with Lung_H358, 0.1 to 1 µM. The IC50 in the experiment on Pancreas_BxPC3 and in the experiment on Lung_H1975 was 0.1 to 1 µM in each case.
Consider `COc1cc2ncnc(NCc3ccccc3)c2cc1OCCCCCCC(=O)NO` [Compound 85, 7-(4-(Benzylamino)-7-methoxyquinazolin-6-yloxy)-N-hydroxyheptanamide], for which the IC50 in the experiment with Pancreas_PANC1 lay within 1 to 10 µM; in [2], 0.1 to 1 µM; in the experiment with Pancreas_HPAC, 1 to 10 µM; in the experiment with Pancreas_BxPC3, 0.1 to 1 µM; in the experiment on Pancreas_CFPAC it was 1 to 10 µM; in the experiment with Pancreas_MiaPaCa2, 1 to 10 µM.
As for `CC(/C=C/C(=O)NO)=C\[C@@H](C)C(=O)c1ccc(N(C)C)cc1` [TSA, trichostatin A], in experiment [4], the “fold increase in ER mRNA expression” value is 5 fold.
In the case of `O=C(CCCCCNC(=O)c1cc(Oc2ccc(NC(=O)Nc3ccc(Cl)c(C(F)(F)F)c3)cc2)ccn1)NO` [Compound 5], the IC50 against C-Raf is 1 to 10 µM.
On to `COc1cc2ncnc(Nc3ccc(F)c(Cl)c3)c2cc1OCCCCCC(C(=O)NO)C(C)C` (centres unmarked) [Compound 112], for which the IC50 in experiment [1] was above 10 µM.

(Values after patent US20080221132A1, “Multi-Functional Small Molecules as Anti-Proliferative Agents” (priority 2006, published 2008).)
